These compounds were tested against T1, Aromatase (Homo sapiens, UniProt P11511).
T1 sequence (P11511 whole entry): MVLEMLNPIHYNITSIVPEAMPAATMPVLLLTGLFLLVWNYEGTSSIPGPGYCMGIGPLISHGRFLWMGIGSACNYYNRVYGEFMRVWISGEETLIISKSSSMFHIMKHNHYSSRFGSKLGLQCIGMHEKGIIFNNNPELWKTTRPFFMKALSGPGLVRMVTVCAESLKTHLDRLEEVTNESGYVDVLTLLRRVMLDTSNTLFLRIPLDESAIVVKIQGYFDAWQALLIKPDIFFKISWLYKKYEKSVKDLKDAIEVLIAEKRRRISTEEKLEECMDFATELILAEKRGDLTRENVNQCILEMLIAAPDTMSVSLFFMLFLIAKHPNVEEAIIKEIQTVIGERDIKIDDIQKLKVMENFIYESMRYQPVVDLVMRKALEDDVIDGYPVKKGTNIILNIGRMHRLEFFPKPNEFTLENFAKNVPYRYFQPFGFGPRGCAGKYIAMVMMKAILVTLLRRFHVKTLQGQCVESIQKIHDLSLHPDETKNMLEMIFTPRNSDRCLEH

Compound | Ki
CCCCCCCC[C@@H]1C[C@@H]2[C@H](CC[C@]3(C)C(=O)CC[C@@H]23)[C@@]2(C)CCC(=O)C=C12 | 0.0028 µM
CC[C@H]1C[C@@H]2[C@H](CC[C@]3(C)C(=O)CC[C@@H]23)[C@@]2(C)CCCC=C12 | 0.012 µM
C[C@]12CC[C@@H]3c4cc(Cl)c(O)cc4CC[C@H]3[C@@H]1CC[C@@H]2O | 0.1 µM
C[C@]12CC[C@H]3[C@@H](CC(=O)[C@]45O[C@H]4C(=O)CC[C@]35C=O)[C@@H]1CCC2=O | 5 µM
CCCCCCC1=C[C@@]2(C)C(=C(O)C1=O)CC[C@@H]1[C@@H]2CC[C@]2(C)C(=O)CC[C@@H]12 | 0.031 µM
C[C@]12CCC(=O)C=C1[C@H](CCCCc1ccccc1)C[C@@H]1[C@@H]2CC[C@]2(C)C(=O)CC[C@@H]12 | 0.016 µM
COC1=C[C@@]2(C)C(=CC1=O)CC[C@@H]1[C@@H]2CC[C@]2(C)C(=O)CC[C@@H]12 | 0.095 µM
C[C@]12CC[C@@H]3c4cc(Br)c(O)cc4CC[C@H]3[C@@H]1CCC2=O | 0.1 µM
CC(=O)O[C@@H]1C[C@@H]2[C@H](CC[C@]3(C)C(=O)CC[C@@H]23)[C@@]2(C)CCCC=C12 | 0.012 µM
Cc1cc2c(cc1O)CC[C@@H]1[C@@H]2CC[C@]2(C)[C@@H](O)CC[C@@H]12 | 0.1 µM
C[C@]12CC[C@@H]3c4cc(NC(=O)c5ccncc5)c(O)cc4CC[C@H]3[C@@H]1CCC2=O | 2.1 µM
C[C@]12CCC(=O)C=C1[C@@H](CCc1ccccc1)C[C@@H]1[C@@H]2CC[C@]2(C)C(=O)CC[C@@H]12 | 0.016 µM
C[C@]12CC[C@@H]3c4ccc(O)cc4[C@@H](CCCc4ccccc4)C[C@H]3[C@@H]1CC[C@@H]2O | 0.1 µM
CCCCCCCC1=C[C@@H]2[C@H](CC[C@]3(C)C(=O)CC[C@@H]23)[C@@]2(C)C=CC(=O)C=C12 | 0.0025 µM
CC(=O)OC1=C2CC[C@@H]3[C@H](CC[C@]4(C)C(=O)CC[C@@H]34)[C@@]2(C)CCC1 | 0.06 µM
C[C@]12CC[C@@H]3c4cc(F)c(O)cc4CC[C@H]3[C@@H]1CC[C@@H]2O | 0.1 µM
C[C@]12CCC(=O)C=C1[C@@H](c1ccc(O)cc1)C[C@@H]1[C@@H]2CC[C@]2(C)C(=O)CC[C@@H]12 | 0.027 µM
C[C@]12CC[C@H]3[C@@H](C(=O)[C@H]4O[C@]45C(=O)CCC[C@]35C=O)[C@@H]1CCC2=O | 5 µM
C[C@]12CC[C@H]3[C@@H](C(=O)[C@H]4O[C@]45C(=O)CCC[C@]35C)[C@@H]1CCC2=O | 5 µM
C[C@]12CC[C@@H]3c4cc(Cl)c(O)cc4CC[C@H]3[C@@H]1CCC2=O | 0.1 µM
C[C@]12CCCC(=O)C1=CC[C@@H]1[C@@H]2CC[C@]2(C)C(=O)CC[C@@H]12 | 0.12 µM
C[C@]12CCC(=O)C=C1C(CCc1ccccc1)=C[C@@H]1[C@@H]2CC[C@]2(C)C(=O)CC[C@@H]12 | 0.01 µM
Cc1cc2c(cc1O)CC[C@@H]1[C@@H]2CC[C@]2(C)C(=O)CC[C@@H]12 | 0.1 µM
CC(=O)O[C@H]1C[C@@H]2[C@H](CC[C@]3(C)C(=O)CC[C@@H]23)[C@@]2(C)CCCC=C12 | 0.012 µM

Compound | Ki
C[C@]12CCC(=O)C=C1C(c1ccc(O)cc1)=C[C@@H]1[C@@H]2CC[C@]2(C)C(=O)CC[C@@H]12 | 0.023 µM
CCCCCC[C@@H]1C[C@@H]2[C@H](CC[C@]3(C)C(=O)CC[C@@H]23)[C@@]2(C)CCC(=O)C=C12 | 0.0028 µM
C[C@]12CC[C@@H]3c4ccc(O)cc4[C@H](CCCc4ccccc4)C[C@H]3[C@@H]1CCC2=O | 0.1 µM
C[C@]12CC[C@@H]3c4cc(Br)c(O)cc4CC[C@H]3[C@@H]1CC[C@@H]2O | 0.1 µM
C[C@]12CC[C@H]3[C@@H](CC(=O)[C@]45O[C@H]4C(=O)CC[C@]35C)[C@@H]1CCC2=O | 5 µM
C[C@]12CCC(=O)C=C1C(Cc1ccccc1)=C[C@@H]1[C@@H]2CC[C@]2(C)C(=O)CC[C@@H]12 | 0.009 µM
C[C@]12CC[C@H]3[C@@H](CC[C@]45O[C@H]4C(=O)CC[C@]35CO)[C@@H]1CCC2=O | 5 µM
C[C@]12CCC(=O)C=C1C(c1ccc(OS(N)(=O)=O)cc1)=C[C@@H]1[C@@H]2CC[C@]2(C)C(=O)CC[C@@H]12 | 0.03 µM
C[C@]12CC[C@H]3[C@@H](CC=C4CCCC[C@@]43C)[C@@H]1CC[C@@H]2O | 0.058 µM
C[C@]12CC[C@@H]3c4ccc(O)cc4[C@@H](Cc4ccccc4)C[C@H]3[C@@H]1CC[C@@H]2O | 0.1 µM
CCCCCC[C@H]1C[C@@H]2[C@H](CC[C@]3(C)C(=O)CC[C@@H]23)[C@@]2(C)CCC(=O)C=C12 | 0.0093 µM
C[C@@H]1C[C@@H]2[C@H](CC[C@]3(C)C(=O)CC[C@@H]23)[C@@]2(C)CCCC=C12 | 0.0053 µM
C[C@]12CC[C@@H]3c4ccc(O)cc4[C@H](Cc4ccccc4)C[C@H]3[C@@H]1CCC2=O | 0.1 µM
CCCCCCC1=C[C@@H]2[C@H](CC[C@]3(C)C(=O)CC[C@@H]23)[C@@]2(C)C=CC(=O)C=C12 | 0.0025 µM
CCCCC1=C[C@@H]2[C@H](CC[C@]3(C)C(=O)CC[C@@H]23)[C@@]2(C)C=CC(=O)C=C12 | 0.0025 µM
C[C@]12C=CC(=O)C=C1C(c1ccc(O)cc1)=C[C@@H]1[C@@H]2CC[C@]2(C)C(=O)CC[C@@H]12 | 0.075 µM
CCCCCC1=C[C@@H]2[C@H](CC[C@]3(C)C(=O)CC[C@@H]23)[C@@]2(C)CCC(=O)C=C12 | 0.017 µM
C[C@]12CC[C@@H]3c4ccc(O)cc4CC[C@H]3[C@@H]1CCC2=O [ESTRONE] | 2.5 µM
CCCCC1=C[C@@H]2[C@H](CC[C@]3(C)C(=O)CC[C@@H]23)[C@@]2(C)CCC(=O)C=C12 | 0.017 µM
C[C@]12CCC(=O)C=C1[C@@H](OCc1ccccc1)C[C@@H]1[C@@H]2CC[C@]2(C)C(=O)CC[C@@H]12 | 0.007 µM
C[C@]12CC[C@@H]3c4ccc(O)cc4[C@H](Cc4ccccc4)C[C@H]3[C@@H]1CC[C@@H]2O | 0.1 µM
C[C@]12CCC=CC1=CC[C@@H]1[C@@H]2CC[C@]2(C)C(=O)CC[C@@H]12 | 0.058 µM
C[C@]12CC[C@@H]3c4ccc(O)c(NC(=O)c5ccncc5)c4CC[C@H]3[C@@H]1CCC2=O | 1.53 µM
C[C@H]1C[C@@H]2[C@H](CC[C@]3(C)C(=O)CC[C@@H]23)[C@@]2(C)CCCC=C12 | 0.0031 µM

Compound | Ki
CCCCCC1=C[C@@H]2[C@H](CC[C@]3(C)C(=O)CC[C@@H]23)[C@@]2(C)C=CC(=O)C=C12 | 0.0025 µM
C[C@]12CC[C@@H]3c4cc(F)c(O)cc4CC[C@H]3[C@@H]1CCC2=O | 0.1 µM
CO[C@H]1C[C@@H]2[C@H](CC[C@]3(C)C(=O)CC[C@@H]23)[C@@]2(C)CCCC=C12 | 0.012 µM
C[C@]12C=CC(=O)C=C1C=C[C@@H]1[C@@H]2CC[C@]2(C)C(=O)CC[C@@H]12 | 0.0025 µM
CCCCC[C@H]1C[C@@H]2[C@H](CC[C@]3(C)C(=O)CC[C@@H]23)[C@@]2(C)CCC(=O)C=C12 | 0.0093 µM
CCCCC[C@@H]1C[C@@H]2[C@H](CC[C@]3(C)C(=O)CC[C@@H]23)[C@@]2(C)CCC(=O)C=C12 | 0.0028 µM
C[C@]12CC[C@H]3[C@@H](CC[C@]45O[C@H]4C(=O)CC[C@]35C=O)[C@@H]1CCC2=O | 5 µM
CO[C@@H]1C[C@@H]2[C@H](CC[C@]3(C)C(=O)CC[C@@H]23)[C@@]2(C)CCCC=C12 | 0.012 µM
CCCCCCCC[C@H]1C[C@@H]2[C@H](CC[C@]3(C)C(=O)CC[C@@H]23)[C@@]2(C)CCC(=O)C=C12 | 0.0093 µM
CCC1=C[C@@H]2[C@H](CC[C@]3(C)C(=O)CC[C@@H]23)[C@@]2(C)C=CC(=O)C=C12 | 0.0025 µM
C[C@]12CC[C@@H]3c4ccc(O)cc4[C@@H](CCCc4ccccc4)C[C@H]3[C@@H]1CCC2=O | 0.1 µM
CCCCCC(=O)O[C@H]1C[C@@H]2[C@H](CC[C@]3(C)C(=O)CC[C@@H]23)[C@@]2(C)CCC(=O)C=C12 | 0.007 µM
C[C@@H]1C[C@@H]2[C@H](CC[C@]3(C)[C@@H](O)CC[C@@H]23)c2ccc(O)cc21 | 0.1 µM
C[C@]12CC[C@@H]3c4ccc(O)cc4[C@H](CCCc4ccccc4)C[C@H]3[C@@H]1CC[C@@H]2O | 0.1 µM
C[C@]12C=CC(=O)C=C1C(c1ccc(OS(N)(=O)=O)cc1)=C[C@@H]1[C@@H]2CC[C@]2(C)C(=O)CC[C@@H]12 | 0.056 µM
C[C@H]1C[C@@H]2[C@H](CC[C@]3(C)[C@@H](O)CC[C@@H]23)c2ccc(O)cc21 | 0.1 µM
C[C@]12CC[C@H]3[C@@H](CC=C4C=CCC[C@@]43C)[C@@H]1CC[C@@H]2O | 0.058 µM
CCCCCCCC1=C[C@@H]2[C@H](CC[C@]3(C)C(=O)CC[C@@H]23)[C@@]2(C)CCC(=O)C=C12 | 0.017 µM
C[C@]12C=CC(=O)C=C1C(CCc1ccccc1)=C[C@@H]1[C@@H]2CC[C@]2(C)C(=O)CC[C@@H]12 | 0.0085 µM
C[C@]12CCCC(OC(=O)c3ccccc3)=C1CC[C@@H]1[C@@H]2CC[C@]2(C)C(=O)CC[C@@H]12 | 0.07 µM
CCCC1=C[C@@H]2[C@H](CC[C@]3(C)C(=O)CC[C@@H]23)[C@@]2(C)C=CC(=O)C=C12 | 0.0025 µM
CCCCCCC1=C[C@@H]2[C@H](CC[C@]3(C)C(=O)CC[C@@H]23)[C@@]2(C)CCC(=O)C=C12 | 0.017 µM
CC1(C)C[C@@]2(C)C(=CC1=O)[C@@H](Br)C[C@@H]1[C@@H]2CC[C@]2(C)C(=O)CC[C@@H]12 | 0.014 µM
